Assay results: patent US6784167B2, “17-beta-hydroxysteroid dehydrogenase-II inhibitors” (Bayer Pharmaceuticals Corporation, priority 2000, dated 2004)

melting point	Compound
232 °C	CN1C(=O)C[C@H](c2ccccc2)[C@@H]1[C@H](O)c1ccc(-c2cccnc2)s1 (relative stereo) [Example 3b, (4R,5R)-5-{(1S)-hydroxy[5-(3-pyridinyl)-2-thienyl]methyl}-1-methyl-4-phenyl-2-pyrrolidinone]
154 to 157 °C	COc1ccc(C(O)C2C(c3ccccc3)CC(=O)N2C)cc1 (centres unmarked) [Example 100]
168 to 170 °C	COc1ccc(-c2ccc(C(O)C3C(c4ccccc4)CC(=O)N3C)s2)cc1 (centres unmarked) [Example 39]
136 °C	CO[C@H](c1cccc(-c2ccccc2)c1)[C@H]1[C@@H](c2ccccc2)CC(=O)N1C [Example 143]
117 °C	CN1C(=O)CC(c2ccccc2)C1C(O)c1ccc(-c2ccc(F)cc2)cc1 (centres unmarked) [Example 111]
160 to 161 °C	COc1cccc(C(O)C2C(c3ccccc3)CC(=O)N2C)c1 (centres unmarked) [Example 97]
180 to 182 °C	COc1ccc2oc(C(O)C3C(c4ccccc4)CC(=O)N3C)cc2c1 (centres unmarked) [Example 113]
150 °C	CC(=O)Nc1cccc(-c2cccc(C(O)C3C(c4ccccc4)CC(=O)N3C)c2)c1 (centres unmarked) [Example 102]
165 °C	CN1C(=O)CC(c2ccccc2)C1C(O)c1cc(-c2ccccc2)cs1 (centres unmarked) [Example 42]
230 °C	CN1C(=O)CC(c2ccccc2)C1C(O)c1cccc(-c2ccc(O)cc2)c1 (centres unmarked) [Example 110]
129 to 131 °C	Cc1ccc(C(O)C2C(c3ccccc3)CC(=O)N2C)cc1 (centres unmarked) [Example 95]
182 to 185 °C	CN(C)c1ccc(C(O)C2C(c3ccccc3)CC(=O)N2C)cc1 (centres unmarked) [Example 101]
98 °C	CN1C(=O)CC(c2ccccc2)C1C(O)c1ccc(-c2cccc(N)c2)o1 (centres unmarked) [Example 119]
155 to 158 °C	CN1C(=O)CC(c2ccccc2)C1C(O)c1cccc(C(F)(F)F)c1 (centres unmarked) [Example 96]
180 °C	CN1C(=O)CC(c2ccccc2)C1C(O)c1ccc(-c2cccc(F)c2)s1 (centres unmarked) [Example 46]
183 °C	COc1cccc(-c2cccc(C(O)C3C(c4ccccc4)CC(=O)N3C)c2)c1 (centres unmarked) [Example 107]
215 °C	COc1ccc(C2CC(=O)N(C)C2C(O)c2ccc(-c3ccccc3)s2)cc1 (centres unmarked) [Example 82]
202 °C	CN1C(=O)CC(c2ccccc2)C1C(O)c1ccc(-c2ccccc2)cc1 (centres unmarked) [Example 93]
231 °C	CN1C(=O)CC(c2ccccc2)C1C(O)c1ccc(-c2cccc(C(=O)O)c2)s1 (centres unmarked) [Example 33]
120 to 122 °C	CN1C(=O)CC(c2ccccc2)C1C(O)c1cc2ccccc2o1 (centres unmarked) [Example 112]
97 °C	CC(=O)Nc1cccc(-c2ccc(C(O)C3C(c4ccccc4)CC(=O)N3C)s2)c1 (centres unmarked) [Example 48]
163 to 165 °C	Cc1cccc([C@@H](O)[C@H]2[C@@H](c3ccccc3)CC(=O)N2C)c1 (relative stereo) [Example 7, (±)-(4R*,5R*)-5-[(1R*)hydroxy(3-methylphenyl)methyl]-1-methyl-4-phenylpyrrolidin-2-one]
130 °C	CN1C(=O)CC(c2ccccc2)C1C(O)c1cccc(-c2cccc(N)c2)c1 (centres unmarked) [Example 105]
187 °C	CN1C(=O)CC(c2ccccc2)C1C(O)c1cccc(-c2cccc(F)c2)c1 (centres unmarked) [Example 103]

More lines, now with the values behind:

Compound	melting point
CN1C(=O)CC(c2ccccc2)C1C(O)c1ccc(C(=O)c2ccc(F)cc2)s1 (centres unmarked) [Example 65]	229 to 232 °C (dec.)
CN1C(=O)C[C@@H]2c3ccccc3[C@@](O)(c3ccc(-c4ccccc4)s3)[C@@H]21 (relative stereo) [Example 24, (±)-(8S*,3aR*,8aR*)-8-hydroxy-1-methyl-8-(5-phenyl(2-thienyl))indano[2,1-b]pyrrolidin-2-one]	178 to 180 °C
CN1C(=O)CC(c2ccccc2)C1C(O)c1ccc(-c2c(F)cc(F)cc2F)s1 (centres unmarked) [Example 75]	95 °C
CC(=O)O[C@H](c1ccc(-c2ccc(F)cc2)s1)[C@H]1[C@@H](c2ccccc2)CC(=O)N1C (relative stereo) [Example 13, (±)-(4R*,5R*)5-{(1S*)[5-(4-fluorophenyl)(2-thienyl)]acetyloxymethyl}-1-methyl4-phenylpyrrolidin-2-one]	75 °C
COc1cc(-c2ccc(C(O)C3C(c4ccccc4)CC(=O)N3C)s2)cc(OC)c1OC (centres unmarked) [Example 49]	190 °C (dec.)
CN1C(=O)C[C@H](c2ccccc2)[C@@H]1[C@H](O)/C=C/c1ccc(F)cc1 (relative stereo) [Example 15, (±)-(4R*,5R*)-5-[(2E)(1R*)-3-(4-fluorophenyl)-1-hydroxyprop-2-enyl]-1-methyl-4-phenylpyrrolidin-2-one]	189 to 191 °C
CN1C(=O)CC(c2ccccc2)C1C(O)c1ccc(-c2ccc(F)cc2)o1 (centres unmarked) [Example 114]	168 °C
CN1C(=O)C[C@H](c2ccccc2)[C@@H]1[C@H](O)c1ccc(-c2ccc(F)cc2)s1 (relative stereo) [Example 3a, (±)-(4R*,5R*)-5-{(1S*) [5-(4-fluorophenyl)(2-thienyl)]hydroxymethyl}-1-methyl-4-phenylpyrrolidin-2-one]	110 °C (dec.)
CN1C(=O)CC(c2ccccc2)C1C(O)c1ccc(Sc2ccc(Cl)cc2)s1 (centres unmarked) [Example 60]	174 to 176 °C
CN1C(=O)C[C@H](c2ccccc2)[C@@H]1[C@H](F)c1ccc(-c2ccc(F)cc2)s1 [Example 144]	121 to 123 °C
CN1C(=O)CC(c2ccccc2)C1C(O)c1ccc2c(c1)OCO2 (centres unmarked) [Example 108]	211 °C
CN1C(=O)C[C@H](c2ccccc2)[C@@H]1[C@H](O)c1ccc(-c2ccc(F)c(Cl)c2)s1 (relative stereo) [Example 5, (±)-(4R*,5R*)-5-{(1S*)[5-(3-chloro-4-fluorophenyl)(2-thienyl)]hydroxymethyl}-1-methyl-4-phenylpyrrolidin-2-one]	194 °C
CN1C(=O)CC(c2ccccc2)C1C(O)c1ccc(Cc2ccc(F)cc2)s1 (centres unmarked) [Example 59]	155 to 157 °C
CN1C(=O)CC(c2ccccc2)C1C(O)c1ccc(-c2ccc3ccccc3n2)s1 (centres unmarked) [Example 40]	225 to 228 °C
CN1C(=O)C[C@H](c2ccccc2)[C@@H]1[C@H](O)c1ccc(C(=O)Nc2ccccc2)s1 (relative stereo) [Example 4, (±)-5-[(1S*)(5-(N-phenylcarbamoyl)(2-thienyl))hydroxymethyl](4R*,5R*)-1-methyl-4-phenylpyrrolidin-2-one]	223 to 227 °C
CN1C(=O)C[C@H](c2ccccc2)[C@@H]1[C@H](O)CCc1ccc(F)cc1 (relative stereo) [Example 16, (±)-5-[(1R*)-3-(4-fluorophenyl)-1-hydroxypropyl](4R*,5R*)-1-methyl-4-phenylpyrrolidin-2-one]	122 to 124 °C
CSc1nccc(-c2ccc(C(O)C3C(c4ccccc4)CC(=O)N3C)s2)n1 (centres unmarked) [Example 77]	195 °C
CN1C(=O)CC(c2ccccc2)C1C(O)C#Cc1cccc(O)c1 (centres unmarked) [Example 132]	210 to 211 °C
CN1C(=O)CC(c2ccc(N)cc2)C1C(O)c1ccc(-c2ccc(F)cc2)s1 (centres unmarked) [Example 86]	209 °C
Cc1ccc(-c2ccc(C(O)C3C(c4ccccc4)CC(=O)N3C)s2)nc1 (centres unmarked) [Example 27]	173 °C
CN1C(=O)CC(c2ccccc2)C1C(O)c1ccc(C=Cc2ccc(F)cc2)s1 (centres unmarked) [Example 56]	194 to 195 °C (dec.)
CN1C(=O)CC(c2ccccc2)C1C(O)c1cc2ccccc2s1 (centres unmarked) [Example 41]	195 °C (dec.)
CN1C(=O)CC(c2ccccc2)C1C(O)c1ccc(C(=O)c2ccccc2)s1 (centres unmarked) [Example 63]	202 °C (dec.)
CN1C(=O)C[C@H](c2ccccc2F)[C@@H]1[C@H](O)c1ccc(-c2cccnc2)s1.Cl [Example 152]	180 to 182 °C
Cc1ccc([C@@H](O)[C@H]2[C@@H](c3ccccc3)CC(=O)N2C)s1 (relative stereo) [Example 6, (±)-(4R*,5R*)-5-[(1S*)-hydroxy(5-methyl(2-thienyl))methyl]-1-methyl-4-phenylpyrrolidin-2-one]	185 to 188 °C
CN1C(=O)CC(c2ccccc2)C1C(O)c1ccc(-c2cccc3ccccc23)s1 (centres unmarked) [Example 45]	160 °C
